Experimental data published in article PMC7216583 (Parasites & Vectors, 2020).
Where a name gives a salt, the structure may show the parent alone. Read-outs that look alike come from different tables or passages of the source.

Assays:
muscarinic receptor = biological target: muscarinic receptor; design: method as in S-inhibitor catalog; details: vendor brief description; ref S-inhibitor catalog; read-out: Kb, muscarinic receptor antagonist; cited from earlier work
[1] = tested on: Toxoplasma gondii RH-2F tachyzoites; assay: microbe, parasite or virus in culture; details: 72 h
PDE4B = tested on: PDE4B; design: method as in S-inhibitor catalog; details: vendor brief description; ref S-inhibitor catalog; cited from earlier work
[2] = biological target: HIV-1 gp120 / CD4 receptor; design: method as in S-inhibitor catalog; details: in virus; vendor brief description; ref S-inhibitor catalog; read-out: EC50, inhibition of binding of HIV-1 gp120 to CD4 receptor; cited from earlier work
p110α [3] = tested on: p110α; design: method as in S-inhibitor; details: ref S-inhibitor; cited from earlier work
p110β = tested on: p110β; design: method as in S-inhibitor; details: ref S-inhibitor; cited from earlier work
p110γ = tested on: p110γ; design: method as in S-inhibitor; details: ref S-inhibitor; cited from earlier work
p110δ = tested on: p110δ; design: method as in S-inhibitor; details: ref S-inhibitor; cited from earlier work
HSP90 = biological target: HSP90; design: method as in S-inhibitor catalog; details: vendor brief description; ref S-inhibitor catalog; cited from earlier work
Her-2 degradation = tested on: Her-2 degradation; design: method as in S-inhibitor catalog; details: vendor brief description; ref S-inhibitor catalog; cited from earlier work
mTORC1 = tested on: mTORC1; design: method as in S-inhibitor catalog; details: vendor brief description; ref S-inhibitor catalog; cited from earlier work
mTORC2 = tested on: mTORC2; design: method as in S-inhibitor catalog; details: vendor brief description; ref S-inhibitor catalog; cited from earlier work
MEK2 = tested on: MEK2; design: method as in S-inhibitor catalog; details: vendor brief description; ref S-inhibitor catalog; cited from earlier work
5-HT Receptor = biological target: 5-HT Receptor; design: method as in S-inhibitor catalog; details: vendor brief description; ref S-inhibitor catalog; cited from earlier work
p110α [4] = tested on: p110α; design: method as in S-inhibitor catalog; details: vendor brief description; ref S-inhibitor catalog; cited from earlier work
Bcr/Abl = tested on: Bcr/Abl; design: method as in S-inhibitor catalog; details: vendor brief description; ref S-inhibitor catalog; cited from earlier work
LXRα/SRC1 = tested on: LXRα/SRC1; design: method as in S-inhibitor catalog; details: vendor brief description; ref S-inhibitor catalog; read-out: EC50, LXRα/SRC1 LiSA; cited from earlier work
LXRα-GAL4 = tested on: LXRα-GAL4; design: method as in S-inhibitor catalog; details: vendor brief description; ref S-inhibitor catalog; cited from earlier work
Syk = tested on: Syk; design: method as in S-inhibitor catalog; details: vendor brief description; ref S-inhibitor catalog; cited from earlier work
[5] = biological target: hydroxymethylglutaryl coenzyme A reductase (HMGCR); design: method as in S-inhibitor catalog; details: vendor brief description; ref S-inhibitor catalog; cited from earlier work
Akt2 = tested on: Akt2; design: method as in S-inhibitor catalog; details: vendor brief description; ref S-inhibitor catalog; cited from earlier work
5-HT1D = biological target: 5-HT1D; design: method as in S-inhibitor catalog; details: vendor brief description; ref S-inhibitor catalog; cited from earlier work
[6] = read-out: Parasite inhibition (%) mean, preliminary screen of compound library, mean

CC(C)N(CC[C@H](c1ccccc1)c1cc(CO)ccc1O)C(C)C [5-hydroxymethyl tolterodine (PNU 200577)]
Kb (muscarinic receptor): 0.84 nM | inhibition of growth at 5 µM [1, 6]: -18.8%

COc1cccc(Nc2c(C(N)=O)cnc3c(C)cc(S(=O)(=O)c4cccc(C(=O)N(C)C)c4)cc23)c1 [GSK256066]
IC50 (PDE4B): 0.0032 nM | inhibition of growth at 5 µM [1, 6]: 18.7%

COc1cc[nH]c2ncc(C(=O)C(=O)N3CCN(C(=O)c4ccccc4)C[C@H]3C)c1-2 [BMS-806 (BMS 378806)]
EC50 [2]: 0.85 to 26.5 nM | inhibition of growth at 5 µM [1, 6]: 0.3%

Cc1ccccc1-n1c(Cn2ncc3c(N)ncnc32)nc2cccc(C)c2c1=O [PIK-293]
IC50 (p110α [3]): 100000 nM | IC50 (p110β): 25000 nM | IC50 (p110γ): 10000 nM | IC50 (p110δ): 240 nM | inhibition of growth at 5 µM ([1]; read-out: Parasite inhibition (%) mean, preliminary screen, mean): 1.1%

CC1(C)CC(=O)c2c(C(F)(F)F)nn(-c3ccc(C(N)=O)c(N[C@H]4CC[C@H](OC(=O)CN)CC4)c3)c2C1 [PF-04929113 (SNX-5422)]
Kd (HSP90): 41 nM | IC50 (Her-2 degradation): 37 nM | inhibition of growth at 5 µM [1, 6]: 4.6%

COc1cccc2cc(-c3nc([C@H]4CC[C@H](C(=O)O)CC4)n4ncnc(N)c34)[nH]c12 [OSI-027]
IC50 (mTORC1): 22 nM | IC50 (mTORC2): 65 nM | inhibition of growth at 5 µM [1, 6]: 31%

CC(=O)Nc1cccc(-n2c(=O)n(C3CC3)c(=O)c3c(Nc4ccc(I)cc4F)n(C)c(=O)c(C)c32)c1 [GSK1120212 (Trametinib)]
IC50 (MEK2): […] | inhibition of growth at 5 µM [1, 6]: -8.7%

COc1ccccc1N1CCN(CCN(C(=O)C2CCCCC2)c2ccccn2)CC1 [WAY-100635 HCl]
IC50 (5-HT Receptor): 0.95 nM | inhibition of growth at 5 µM [1, 6]: -0.7%

Nc1cc(C(F)(F)F)c(-c2cc(N3CCOCC3)nc(N3CCOCC3)n2)cn1 [BKM120 (NVP-BKM120)]
IC50 (p110α [4]): […] | inhibition of growth at 5 µM [1, 6]: 41.3%

CCC[C@H](NC(=O)/C(C#N)=C/c1cccc(Br)n1)c1ccccc1 [WP1130]
IC50 (Bcr/Abl): 1800 nM | inhibition of growth at 5 µM [1, 6]: 1.7%

O=C(O)Cc1cccc(OCCCN(Cc2cccc(C(F)(F)F)c2Cl)CC(c2ccccc2)c2ccccc2)c1 [GW3965 HCl]
EC50 (LXRα/SRC1): 125 nM | EC50 (LXRα-GAL4): 190 nM | inhibition of growth at 5 µM [1, 6]: -20.1%

COc1cc(Nc2ncc(F)c(Nc3ccc4c(n3)N(COP(=O)(O)O)C(=O)C(C)(C)O4)n2)cc(OC)c1OC [R788 (Fostamatinib)]
IC50 (Syk): […] | inhibition of growth at 5 µM [1, 6]: 27.4%

CCC(C)(Oc1ccc(C2(c3ccc(OC(C)(CC)C(=O)O)cc3)CCCCC2)cc1)C(=O)O (stereo not drawn) [Clinofibrate]
IC50 [5]: 470000 nM | inhibition of growth at 5 µM [1, 6]: 0.1%

NC1(Cc2ccc(Cl)cc2)CCN(c2ncnc3[nH]ccc23)CC1 [CCT128930]
IC50 (Akt2): […] | inhibition of growth at 5 µM [1, 6]: -25.6%

CC1(C)C(=O)N(CCN2CCC(C(=O)c3ccc(F)cc3)CC2)c2ccccc21 [LY310762]
Ki (5-HT1D): ~200 nM | inhibition of growth at 5 µM [1, 6]: 1.5%
